The values below come from ChEMBL document CHEMBL1201862, “PubChem BioAssay data set” (2004).

Some test systems named below: SN12C; MCF7; TK-10; MDA-N; DU-145; SR; NCI-H522; A549; HCT-116; MDA-MB-435; OVCAR-3; HOP-62; OVCAR-8; RXF 393; NCI-H460; U-251; EKVX; MOLT-4; OVCAR-4; LXFL 529.
Holding throughout (test): NCI tumour cell line growth inhibition, 48 h

Each structure is given as a SMILES string.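 How tested: cells in 96-well plates exposed to compound for 48 hours at five concentrations. Here, GI50 denotes the concentration required for 50% inhibition of growth.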 The source made the active and inactive calls. Rule as the data show it: active = GI50 up to about 1.1 µM and inactive = higher. Some results are limits rather than exact numbers.

For `COc1cc(C2=N/C(=C/c3cccs3)C(=O)O2)cc(OC)c1OC`, the GI50 in the test with SN12C, with MCF7, with TK-10, in the test with MDA-N, with DU-145 and in the test on SR was > 100 µM (inactive) each time. Besides, the GI50 in the test on NCI-H522, in the test on A549, in the test with HCT-116, in the test with MDA-MB-435, in the test with OVCAR-3 and in the test with HOP-62 was > 100 µM (inactive) each time. For the same compound, the GI50 in the test with OVCAR-8, with RXF 393, with NCI-H460, in the test with U-251, with EKVX and with MOLT-4 was > 100 µM (inactive) in each case. Further, in the test on OVCAR-4, the GI50 was > 100 µM (inactive).

As to `O=C(NNC(=S)Nc1ccccc1)c1ccccc1Nc1ccccc1C(=O)NNC(=S)Nc1ccccc1`, the GI50 in the test on SN12C is 19.6 µM (inactive); in the test with MCF7, 23.8 µM (inactive); with TK-10, 25.3 µM (inactive); in the test on MDA-N it was 29.1 µM (inactive); with DU-145 it was 23.3 µM (inactive); in the test with SR, 43.6 µM (inactive). Also, the GI50 was 16.5 µM (inactive) in the test with NCI-H522; 27.2 µM (inactive) with A549; 17.7 µM (inactive) in the test with HCT-116; 20.9 µM (inactive) in the test with MDA-MB-435; 19.6 µM (inactive) with OVCAR-3; 21.7 µM (inactive) in the test with HOP-62. The GI50 was 20 µM (inactive) with OVCAR-8; 19.2 µM (inactive) with RXF 393; 20 µM (inactive) in the test on NCI-H460; 19.5 µM (inactive) in the test with U-251; 21.1 µM (inactive) in the test with EKVX; 29.6 µM (inactive) with MOLT-4. For the same compound, in the test with OVCAR-4, the GI50 is 26.7 µM (inactive).

On to `O=C1SC(c2ccccc2)(c2ccccc2)c2ccccc21`, for which the GI50 in the test with SN12C is > 100 µM (inactive); with TK-10, 88.3 µM (inactive); in the test on NCI-H522, 68.4 µM (inactive); in the test with LXFL 529 it was > 100 µM (inactive); with A549, 50.9 µM (inactive); in the test with HCT-116, > 100 µM (inactive). For the same compound, the GI50 in the test on OVCAR-3 was > 100 µM (inactive); with HOP-62 it was > 100 µM (inactive); in the test on OVCAR-8 it was > 100 µM (inactive); with RXF 393, 44.1 µM (inactive); with NCI-H460 it was 69.7 µM (inactive); with U-251 it was > 100 µM (inactive). The GI50 in the test on EKVX is 63.5 µM (inactive); with MOLT-4 it was 82.8 µM (inactive); in the test on OVCAR-4, 92.5 µM (inactive).

`O=C(O)C(CS)NCc1c2ccccc2[n+]([O-])c2ccccc12` (configuration not stated): the GI50 with SN12C is 34.4 µM (inactive); with TK-10 it was 95.1 µM (inactive); in the test with NCI-H522, 94 µM (inactive); in the test on LXFL 529 it was 23.8 µM (inactive); in the test with A549 it was > 100 µM (inactive); with HCT-116, 5.87 µM (inactive). Moreover, the GI50 in the test with OVCAR-3 is 81.7 µM (inactive); in the test on HOP-62, 66.1 µM (inactive); with OVCAR-8, 30.4 µM (inactive); in the test with NCI-H460, 41.4 µM (inactive); in the test on U-251 it was 45.4 µM (inactive); in the test on EKVX, 54.3 µM (inactive). Further, the GI50 is 13.8 µM (inactive) with MOLT-4 and 24.9 µM (inactive) in the test with OVCAR-4.

As to `CC(C)(C)NNC(=O)CCn1[nH]c(=O)c(Cl)c(Cl)c1=O`, the GI50 in the test with SN12C, with TK-10, in the test with NCI-H522, with LXFL 529, with A549 and in the test with OVCAR-3 was > 100 µM (inactive) throughout. Moreover, the GI50 in the test with HOP-62, in the test on OVCAR-8, with RXF 393, in the test with NCI-H460, in the test on U-251 and with EKVX was > 100 µM (inactive) each time. Also, the GI50 in the test with MOLT-4 and with OVCAR-4 was > 100 µM (inactive) throughout.

In the case of `COc1cc2c(cc1OC)-c1c3cc(O)ccc3nn[n+]1CC2`, the GI50 with SN12C, in the test with TK-10, in the test with NCI-H522, with LXFL 529, in the test with A549 and in the test on HCT-116 was > 100 µM (inactive) in each case. In addition, the GI50 in the test on OVCAR-3, with HOP-62, in the test on OVCAR-8, with RXF 393, in the test on NCI-H460 and in the test on U-251 was > 100 µM (inactive) each time. The GI50 in the test on EKVX, in the test on MOLT-4 and in the test with OVCAR-4 was > 100 µM (inactive) throughout.

`Cc1ccc(S(=O)(=O)c2ccccn2)cc1`: the GI50 with SN12C, with TK-10, in the test on NCI-H522, in the test on LXFL 529, in the test on A549 and with HCT-116 was > 100 µM (inactive) each time. Further, the GI50 in the test on OVCAR-3, in the test with HOP-62, with OVCAR-8, with RXF 393, in the test with NCI-H460 and in the test on U-251 was > 100 µM (inactive) each time. In addition, the GI50 in the test on EKVX, in the test on MOLT-4 and in the test with OVCAR-4 was > 100 µM (inactive) throughout.

Take `COc1cccc(C2c3cc4c(cc3OC(C)(N3CCCC3)C2C)OCO4)c1` (configuration not stated): the GI50 in the test with SN12C is 17.2 µM (inactive); in the test with MCF7, 9.51 µM (inactive); in the test on TK-10, 10.9 µM (inactive); with MDA-N, 2.13 µM (inactive); with DU-145, 20.7 µM (inactive); in the test with SR, 9.48 µM (inactive). Further, the GI50 in the test with NCI-H522 was 2.37 µM (inactive); in the test with A549, 7.55 µM (inactive); in the test with HCT-116, 7.62 µM (inactive); in the test on MDA-MB-435, 4.19 µM (inactive); in the test with OVCAR-3, 4.89 µM (inactive); with HOP-62 it was 6.62 µM (inactive). Further, the GI50 was 20.9 µM (inactive) in the test with OVCAR-8; 14 µM (inactive) with RXF 393; 9.62 µM (inactive) in the test on NCI-H460; 7.59 µM (inactive) with U-251; 24.6 µM (inactive) in the test on EKVX; 51.3 µM (inactive) in the test on MOLT-4. Also, the GI50 in the test with OVCAR-4 was 14.3 µM (inactive).

As to `O=C(CCc1n[nH]c(=S)o1)Nc1ccc(Cl)cc1Cl`, the GI50 was > 100 µM (inactive) in the test on SN12C; > 100 µM (inactive) with TK-10; 61.8 µM (inactive) in the test on NCI-H522; > 100 µM (inactive) in the test with LXFL 529; > 100 µM (inactive) with A549; 33.9 µM (inactive) in the test on HCT-116. In addition, the GI50 in the test on OVCAR-3, in the test with HOP-62, in the test with OVCAR-8, in the test with NCI-H460, in the test with U-251 and in the test on EKVX was > 100 µM (inactive) throughout. Also, the GI50 with MOLT-4 and with OVCAR-4 was > 100 µM (inactive) throughout.

Consider `COc1cc2c(c(OC)c1OC)-c1ccc(SC)c(=O)cc1[C@@H](NC(=O)c1ccc(OC(C)=O)cc1)CC2`, for which the GI50 was 0.0324 µM (active) in the test with SN12C; 0.0454 µM (active) in the test on TK-10; 0.01 µM (active) in the test on NCI-H522; 0.0158 µM (active) in the test on LXFL 529; 0.01 µM (active) in the test on A549; 0.0229 µM (active) in the test on HCT-116. Further, the GI50 in the test with OVCAR-3 was 0.015 µM (active); in the test with HOP-62, 0.0419 µM (active); with OVCAR-8 it was 0.0313 µM (active); with RXF 393 it was 0.018 µM (active); with NCI-H460, 0.0326 µM (active); in the test with U-251, 0.0227 µM (active). The GI50 in the test with EKVX was 0.0139 µM (active); with MOLT-4 it was 0.0409 µM (active); with OVCAR-4, 0.0675 µM (active).

In the case of `Clc1ccc(COC(Cn2ccnc2)c2ccc(Cl)cc2Cl)cc1` (configuration not stated) [ECONAZOLE NITRATE], the GI50 in the test on SN12C was 12.1 µM (inactive); in the test on MCF7, 8.26 µM (inactive); in the test with TK-10, 11.4 µM (inactive); with MDA-N, 11.9 µM (inactive); in the test on DU-145, 14.4 µM (inactive); in the test with SR it was 3.49 µM (inactive). For the same compound, the GI50 in the test with NCI-H522 was 8.24 µM (inactive); with A549, 9.79 µM (inactive); with HCT-116, 6.67 µM (inactive); in the test with MDA-MB-435, 9.68 µM (inactive); with OVCAR-3, 11.5 µM (inactive); in the test with HOP-62, 15.5 µM (inactive). Also, the GI50 is 14.8 µM (inactive) with OVCAR-8; 14.1 µM (inactive) with RXF 393; 10.7 µM (inactive) in the test with NCI-H460; 12.6 µM (inactive) with U-251; 12.1 µM (inactive) in the test with EKVX; 2.75 µM (inactive) with MOLT-4. Moreover, in the test on OVCAR-4, the GI50 is 8.3 µM (inactive).

On to `COc1ccc(C(=O)O[C@H]2CC[C@@]3(C)[C@@H]4CC[C@H]5[C@]6(O)C[C@H](O)[C@@]7(O)[C@@H](CN8C[C@@H](C)CC[C@H]8[C@@]7(C)O)[C@]6(O)C[C@@]53OC24O)cc1OC` [VERATRIDINE], for which the GI50 is > 100 µM (inactive) with SN12C; > 100 µM (inactive) in the test with MCF7; > 100 µM (inactive) in the test with TK-10; > 100 µM (inactive) in the test with MDA-N; > 100 µM (inactive) in the test on DU-145; 74.8 µM (inactive) with SR. In addition, the GI50 in the test on NCI-H522, in the test with A549, with HCT-116, in the test with MDA-MB-435, with OVCAR-3 and in the test with HOP-62 was > 100 µM (inactive) throughout. In addition, the GI50 in the test on OVCAR-8 was > 100 µM (inactive); in the test on RXF 393 it was 57.5 µM (inactive); with NCI-H460 it was 75.2 µM (inactive); in the test with U-251 it was > 100 µM (inactive); in the test on EKVX, > 100 µM (inactive); in the test with MOLT-4, 95.5 µM (inactive). Also, the GI50 in the test on OVCAR-4 is > 100 µM (inactive).
